Assays:
[1] = In-solution screening: CaP precipitation and aggregation in artificial renal tubular fluid (RTF); details: 9 mM phosphate, 8 mM calcium, 4 h, RT
Description: An artificial renal tubular fluid (RTF) with a final composition of 0.05 mM oxalate, 0.005 mM sulphate, 408 mM sodium, 424 mM chloride, 0.26 mM potassium, 4 mM magnesium and 0.2 mM citrate in double distilled water was prepared according to a literature report (Fasano, J. M. et al., Kidney Int. 59, 169-178. DOI: 10.1046/j.1523-1755.2001.00477.x, 2001). The solution was filtered with a 0.45-μm syringe filter. Twenty mM Bis-Tris buffer was added to the reported protocol to ensure pH stability throughout experiments and pH was set to 7.2. The artificial RTF was stored at room temperature for up to four months. Stock solutions of 0.25 M phosphate and 1 M calcium were prepared in double distilled water and were stored separately at −20° C.
Twenty-x final concentration phosphate, 20× final concentration calcium and 10× final concentration compound dilutions were prepared in RTF. Assay mixture consisting of 80% RTF, 10% compound dilution, 5% phosphate dilution and 5% calcium dilution was prepared in Eppendorf tubes as follows. RTF (320 μL) was mixed with 20 μL phosphate dilution (final concentration of 9 mM), 40 μL compound dilution and 20 μL calcium dilution (final concentration of 8 mM). The assay mixture was vortexed after adding each component and 380 μL of the mixture were immediately added to 8-well glass bottom slides and incubated for 4 hat RT. CaP precipitation was assessed using a Leica DM 6000B microscope (Leica Microsystems, Wetzlar, Germany) in brightfield mode. For quantification 3 wells/condition with 3-4 images/well were imaged with a 40× objective. The total area covered with CaP deposits in percentage of the field of view and the mean size of CaP aggregates were determined.
In a first step, the influence of selected IP6 analogues (FIG. 3) on CaP precipitation and growth was assessed in vitro using artificial renal tubular fluid (RTF) (Table 1). In a previous study, the inventors investigated CaP protein particle formation in serum. However, an important difference to cardiovascular calcification lies in the extremely low protein content of the renal tubular fluid vs. the high abundance of proteins in blood, which can stabilize amorphous particles. Two cut-offs were chosen for assessing efficacy. First, complete inhibition was defined as a >90% reduction of detected CaP precipitates compared to the control sample without compound.

[2] = system: RPTEC/TERT 1 human proximal tubule cells; assay: Imaging assay: CaP adhesion/deposition and cellular changes on RPTEC monolayers treated with 5/7 mM Ca/P; assay type: cell-based; details: 7 mM phosphate, 5 mM calcium, 24 h
Description: RPTEC/TERT 1 human proximal tubule cells (RPTEC) were cultured in T75 tissue culture flasks using ProxUp basal medium mixed with ProxUp supplements at 37° C. and 5% CO2 according to manufacturer's recommendations. Cells were used up to passage 30 and regularly tested for Mycoplasma infections. For experiments, RPTEC were cultured in 24-well plates at a seeding density of 150′000 cells/cm^2. Cell viability assessment and cell counting before seeding was performed using an automated cell counter (BioRad TC 20, Hercules, CA, USA).
For the comparison of selected IP6 analogues, ProxUp basal medium was prepared with the selected inhibitor and added to each well. Then, CaP precipitation was induced by direct addition of first, phosphate and second, calcium. Final concentrations of 7 mM phosphate and 5 mM calcium were used. Cells were incubated for 24 h at 37° C. and 5% CO2. Spiked medium was removed, and cells were washed twice with PBS before staining.
For staining, ProxUp basal medium was mixed with calcein (500 nM final concentration), EthD (6 μM final concentration), CellMask stain ([…]) and Hoechst 33342. Staining mixture was added to RPTEC and cells were incubated for 30 min in the dark at 37° C. and 5% CO2. Staining solution was removed, cells were washed with PBS once and ProxUp basal medium was added. Cells were immediately imaged after staining. Images were obtained by epifluorescence microscopy at 37° C., using a Leica CTR6000 microscope. For quantification 3 wells/condition were prepared and 3 images/well were taken. For preliminary adhesion experiments images were taken with a 10× objective, for the imaging assay 20× objective images were taken.
Multichannel images were saved as individual channel images in 8-bit tiff format. For analysis Hoechst channel images were thresholded using the triangle threshold. Touching nuclei of the binary image were further segmented using the watershed algorithm with the distance transform of the binary image as input and local maxima thereof as seeds.
For EthD channel images, high level of background noise was observed, potentially as a result of fluorescence of the CellMask stain bleeding through. […] A fixed minimum threshold was set at 60. Watershed segmentation similar to the Hoechst channel was performed to segment touching objects. For the calcein channel images adaptive thresholding by triangle thresholding achieved good detection of CaP deposits, which was validated by visual comparison to brightfield channel images. For compound experiments, an additional upper threshold was set to the minimum threshold of the pos.ctrl images for the respective experiment. Thereby an overly insensitive threshold in images with a high amount of CaP deposition was circumvented. The sum of foreground pixels of the binary image was used to calculate the total area of CaP deposits. The skimage label algorithm was used to label touching foreground regions.
To segment images to single cells the CellMask channel image was first binarized by adaptive thresholding, using a blocksize of 35, followed by median filtering. Binary erosion was performed to shrink the outlines. A version of watershed algorithm was used to segment the whole image into single cells. To this end, the distance transform of the binary erosion image was used as input image and seeds were set to the local maxima of the Hoechst channel image. While this protocol allowed for an approximation of single cell morphology, further improvements of both analytical and experimental staining procedure would be necessary to achieve more accurate results.
Additionally, texture features of calcein and CellMask channel images were extracted. Grey level co-occurrence matrices were calculated using one set offset of 5 pixel and an angle of 90°. Here, the use of larger offsets could improve the detection of changes in large-scale features, e.g. CaP clustering sites. […]

| Molecule | concentration at which CaP precipitation was promoted [1] [µM] | effect on CaP precipitation / crystallization (in words) [1] | concentration achieving complete inhibition of CaP adhesion [2] [µM] | other results |
| --- | --- | --- | --- | --- |
| O=P(O)(O)OC1[C@@H](OP(=O)(O)O)[C@H](OP(=O)(O)O)C(O)[C@H](OP(=O)(O)O)[C@H]1OP(=O)(O)O (stereo partly drawn) [IP5, myo-inositol pentakisphosphate, reference compound] | 30 |  |  |  |
| O=P(O)(O)O[C@H]1[C@H](OP(=O)(O)O)[C@@H](OP(=O)(O)O)[C@H](OP(=O)(O)O)[C@@H](OP(=O)(O)O)[C@H]1OP(=O)(O)O [IP6, Phytic acid, reference compound] | 10 |  |  |  |
| O=S(=O)(O)OC1C(OS(=O)(=O)O)C(OS(=O)(=O)O)C(OS(=O)(=O)O)C(OS(=O)(=O)O)C1OS(=O)(=O)O (stereo not drawn) [IS6, myo-inositol hexasulfate, reference compound] |  | weak inhibitory properties |  |  |
| COCCOCCO[C@@H]1[C@@H](OP(=O)(O)O)[C@H](OP(=O)(O)O)[C@@H](OP(=O)(O)O)[C@@H](OP(=O)(O)O)[C@H]1OP(=O)(O)O [OEG2-IP5] |  |  | 50 | concentration for complete inhibition of CaP precipitation (>90% reduction of detected CaP precipitates vs control) [1]: 30 µM; concentration for inhibition of CaP aggregation (>50% reduction of mean size of aggregates vs control) [1]: 1 µM |
| COCCOCCOCCOCCOCCOCCOCCOCCOCCOCCOCCO[C@@H]1[C@@H](OP(=O)(O)O)[C@H](OP(=O)(O)O)[C@@H](OP(=O)(O)O)[C@@H](OP(=O)(O)O)[C@H]1OP(=O)(O)O [OEG11-IP5] |  |  | 50 | aggregation inhibitory concentration (>50% reduction of mean size of aggregates vs control) [1]: 300 nM |
| cyclohexane hexacarboxylic acid [IC6, reference compound] |  | weak inhibitory properties |  |  |

From US20240000811A1, “INOSITOL HEXAKISPHOSPHATE ANALOGUES FOR TREATMENT OF CALCIFICATION ASSOCIATED KIDNEY DISEASES” (INOSITEC AG, priority 2020, published 2024)
